Data: paper PMC10316653 (iScience, 2023)
One block for each molecule: values may come before it.

What was measured:
[1] = biological target: T1, A2BAR (Rattus norvegicus, UniProt P29276); assay: cAMP accumulation assay in H9C2 cells endogenously expressing the A2BAR; type: cell-based
T1 sequence (P29276 1-332): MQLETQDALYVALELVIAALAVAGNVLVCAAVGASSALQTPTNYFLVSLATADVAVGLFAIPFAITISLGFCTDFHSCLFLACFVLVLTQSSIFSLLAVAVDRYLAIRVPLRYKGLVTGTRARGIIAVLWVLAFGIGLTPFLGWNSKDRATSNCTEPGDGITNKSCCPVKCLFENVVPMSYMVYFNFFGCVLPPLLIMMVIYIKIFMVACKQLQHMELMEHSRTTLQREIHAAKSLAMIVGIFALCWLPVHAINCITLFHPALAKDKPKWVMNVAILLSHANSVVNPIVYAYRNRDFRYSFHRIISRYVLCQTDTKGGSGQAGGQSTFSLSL

[2] = biological target: T2, A1AR (Rattus norvegicus, UniProt P25099); assay: A1AR-mediated inhibition of forskolin-stimulated cAMP accumulation in H9C2 cells; type: cell-based
T2 sequence (P25099 1-326): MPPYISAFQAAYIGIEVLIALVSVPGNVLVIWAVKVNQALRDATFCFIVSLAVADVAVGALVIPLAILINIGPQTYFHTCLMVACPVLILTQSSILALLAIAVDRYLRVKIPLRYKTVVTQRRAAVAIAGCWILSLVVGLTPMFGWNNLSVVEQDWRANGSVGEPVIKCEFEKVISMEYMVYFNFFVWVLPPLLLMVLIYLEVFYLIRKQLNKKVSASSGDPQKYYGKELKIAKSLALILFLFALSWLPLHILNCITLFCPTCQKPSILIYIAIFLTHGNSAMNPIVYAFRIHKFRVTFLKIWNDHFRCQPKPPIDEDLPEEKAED

[3] = biological target: T3, A2BAR (Homo sapiens, UniProt P29275); assay: cAMP accumulation assay in naive HEK293 cells; type: cell-based
T3 sequence (P29275 1-332): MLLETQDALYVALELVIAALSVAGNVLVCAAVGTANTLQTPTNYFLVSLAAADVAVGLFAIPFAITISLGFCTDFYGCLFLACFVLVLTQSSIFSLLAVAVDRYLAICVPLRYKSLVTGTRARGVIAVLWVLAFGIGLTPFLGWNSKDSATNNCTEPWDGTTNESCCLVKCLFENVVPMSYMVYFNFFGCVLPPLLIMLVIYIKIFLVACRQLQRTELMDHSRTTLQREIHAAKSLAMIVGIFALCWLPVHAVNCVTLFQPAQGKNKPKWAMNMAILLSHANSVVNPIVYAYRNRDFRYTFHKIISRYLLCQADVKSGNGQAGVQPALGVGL

[4] = biological target: T3, A2BAR; assay: cAMP accumulation assay in HEK293-A2B cells; type: cell-based; conditions: HEK293-A2B cells
[5] = system: PKCα; conditions: reported selectivity profile, ref not given; cited from earlier work
[6] = system: PKCβI; conditions: reported selectivity profile, ref not given; cited from earlier work
[7] = system: H9C2 cells; assay: Intracellular calcium mobilization assay in H9C2 cells; type: cell-based, rat; conditions: GO6983 1 μM 20 min before PMA 1 μM
[8] = biological target: T3, A2BAR; assay: Intracellular calcium mobilization assay in HEK293-A2B cells; type: cell-based; conditions: GO6983 1 μM before PMA 1 μM
[9] = system: ERK1/2; assay: ERK1/2 activity assay in H9C2 cells; type: cell-based, rat; conditions: 1 μM added 20 min before PMA 1 μM
[10] = biological target: T3, A2BAR; assay: Radioligand binding to membranes from HEK293-A2B cells; conditions: membranes from HEK293-A2B cells, 1 μM
[11] = naive HEK293 cells, inhibitor 1 μM, PMA 1 μM, BAY 10 μM
[12] = inhibitor 20 min before PMA (Figure 10C)

SMILES: N#Cc1c(N)nc(SCC(N)=O)c(C#N)c1-c1ccc(OCC2CC2)cc1 [BAY]
induction of cAMP accumulation ([1]; H9C2 cells, agonist 20 min): induced robust cAMP accumulation

SMILES: OC1C(CCl)OC(n2cnc3c(NC4CC5CCC4C5)ncnc32)C1O (stereo not drawn) [Cl-ENBA]
inhibited cAMP accumulation stimulated by forskolin ([2]; 1 μM, forskolin 10 μM): neither
inhibition of forskolin's effect on cAMP ([2]; range of concentrations (Figure S1)): unable to inhibit forskolin’s effect

SMILES: CN(C)CCCn1cc(C2=C(c3c[nH]c4ccccc34)C(=O)NC2=O)c2ccccc21 [GF109203X]
remaining enhancement ([3]; naive HEK293 cells, in the presence of 1 μM GF109203X): 26%
effect on PKC (PMA)-induced enhancement of BAY-induced cAMP accumulation [3, 11]: blocked PKC-induced enhancement
inhibition of PKC-induced enhancement of BAY-induced cAMP accumulation [3, 11]: 74%
effect on PKC-induced A2BAR activation (cAMP) [4, 12]: significantly inhibited

SMILES: O=S(=O)(NCCNC/C=C/c1ccc(Br)cc1)c1cccc2cnccc12 [H89]
effect on PMA enhancement of cAMP accumulation ([3]; HEK293 cells, H89 10 μM, PMA 1 μM): unaffected
effect on PMA-induced ERK1/2 phosphorylation [9]: not affected

More lines, main results first:

effect on PKC (PMA)-induced enhancement of BAY-induced cAMP accumulation [3, 11]: modest but significant inhibition
effect on PKC-induced A2BAR activation (cAMP) ([4]; inhibitor 30 nM): lack of inhibition
SMILES: Cn1c2ccccc2c2c3c(c4c5ccccc5n(CCC#N)c4c21)CNC3=O [GO6976]
IC50 [5]: 2.3 nM
IC50 [6]: 6.2 nM

effect on PKC (PMA)-induced enhancement of BAY-induced cAMP accumulation [3, 11]: blocked PKC-induced enhancement
effect on PKC-induced A2BAR activation (cAMP) [4, 12]: significantly inhibited
effect on PMA inhibition of NECA-induced calcium mobilization [8]: completely blocked
SMILES: COc1ccc2c(c1)c(C1=C(c3c[nH]c4ccccc34)C(=O)NC1=O)cn2CCCN(C)C [GO6983]
effect on BAY-induced cAMP accumulation ([1]; H9C2 cells, 1 μM, no PMA): did not affect BAY-induced cAMP accumulation
effect on PKC- and NECA-induced cAMP accumulation ([4]; GO6983 1 μM): blocked PKC- but not NECA-induced cAMP accumulation
effect on PMA inhibition of UTP calcium response [7]: completely reversed
effect on PMA-induced ERK1/2 phosphorylation [9]: diminished

effect on PMA-induced cAMP accumulation ([1]; naive H9C2 cells, antagonist 1 µM): inhibited
KB against BAY more potent than IC50 against PKC [4]: over 100 fold
displacement of specific binding of [3H]NECA (25 nM) [10]: 100%
SMILES: CCCn1c(=O)c2[nH]c(-c3ccc(OCC(=O)Nc4ccc(C#N)cc4)cc3)nc2n(CCC)c1=O [MRS1754]

effect of pretreatment on A2BAR (NECA)-mediated cAMP accumulation ([4]; 1 μM, 20 min before NECA): did not show any effect
SMILES: CSc1nc(N)c2ncn([C@H]3[C@H](O)[C@H](O)[C@]4(COP(=O)([O-])OP(=O)([O-])[O-])C[C@H]34)c2n1.[Na+].[Na+].[Na+] [MRS2365, [[(1R,2R,3S,4R,5S)-4-[6-amino-2-(methylthio)-9H-purin-9-yl]-2,3-dihydroxybicyclo[3.1.0]hex-1-yl]methyl] diphosphoric acid monoester trisodium salt]
